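Compound exposure: 48 hours, 5 concentrations, 96-well plates. TGI: total growth inhibition.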
Assays:
Test in all cases: growth of human tumour cells (NCI), 48 h
SK-OV-3 ovarian = tested on: SK-OV-3 ovarian
IGROV1 ovarian = tested on: IGROV1 ovarian
OVCAR-5 ovarian = tested on: OVCAR-5 ovarian
SN12C renal = tested on: SN12C renal
TK-10 renal = tested on: TK-10 renal
HCT-15 colon = tested on: HCT-15 colon
NCI-H226 lung = tested on: NCI-H226 lung
MDA-MB-435 = tested on: MDA-MB-435
NCI/ADR-RES ovarian = tested on: NCI/ADR-RES ovarian
HT29 colon = tested on: HT29 colon
PC-3 prostate = tested on: PC-3 prostate
OVCAR-8 ovarian = tested on: OVCAR-8 ovarian
UACC-62 melanoma = tested on: UACC-62 melanoma
LOX IMVI melanoma = tested on: LOX IMVI melanoma
MDA-MB-231 breast = tested on: MDA-MB-231 breast
HCC-2998 colon = tested on: HCC-2998 colon
HOP-62 NSCLC = tested on: HOP-62 NSCLC
HCT-116 colon = tested on: HCT-116 colon
A549 NSCLC = tested on: A549 NSCLC
ACHN renal = tested on: ACHN renal
A498 renal = tested on: A498 renal
M14 melanoma = tested on: M14 melanoma
MCF7 breast = tested on: MCF7 breast
NCI-H460 lung = tested on: NCI-H460 lung
OVCAR-4 ovarian = tested on: OVCAR-4 ovarian
NCI-H522 lung = tested on: NCI-H522 lung
SK-MEL-28 melanoma = tested on: SK-MEL-28 melanoma
NCI-H23 lung = tested on: NCI-H23 lung
SK-MEL-5 melanoma = tested on: SK-MEL-5 melanoma
OVCAR-3 ovarian = tested on: OVCAR-3 ovarian
UACC-257 melanoma = tested on: UACC-257 melanoma
SW-620 colon = tested on: SW-620 colon
SK-MEL-2 melanoma = tested on: SK-MEL-2 melanoma
SNB-19 CNS = tested on: SNB-19 CNS
MDA-N = tested on: MDA-N
786-0 renal = tested on: 786-0 renal
UO-31 renal = tested on: UO-31 renal
MALME-3M melanoma = tested on: MALME-3M melanoma
BT-549 breast = tested on: BT-549 breast
T-47D breast = tested on: T-47D breast
RPMI-8226 leukemia = tested on: RPMI-8226 leukemia
SF-268 CNS = tested on: SF-268 CNS
SF-295 CNS = tested on: SF-295 CNS
CAKI-1 renal = tested on: CAKI-1 renal
U251 CNS = tested on: U251 CNS
CCRF-CEM leukemia = tested on: CCRF-CEM leukemia
HS 578T breast = tested on: HS 578T breast
SNB-75 CNS = tested on: SNB-75 CNS
COLO 205 colon = tested on: COLO 205 colon
EKVX NSCLC = tested on: EKVX NSCLC
K-562 leukemia = tested on: K-562 leukemia
DU-145 prostate = tested on: DU-145 prostate
SR leukemia = tested on: SR leukemia
SF-539 CNS = tested on: SF-539 CNS
KM12 colon = tested on: KM12 colon
HL-60(TB) leukemia = tested on: HL-60(TB) leukemia
HOP-92 NSCLC = tested on: HOP-92 NSCLC
MOLT-4 leukemia = tested on: MOLT-4 leukemia

Structure (SMILES): COc1ccc2c(c1)CCc1c-2n(CCN2CCCCC2)c2ccc(OC)cc12
- TGI (SK-OV-3 ovarian): > 100 µM
- TGI (IGROV1 ovarian): > 100 µM
- TGI (OVCAR-5 ovarian): > 100 µM
- TGI (SN12C renal): > 100 µM
- TGI (TK-10 renal): > 100 µM
- TGI (HCT-15 colon): > 100 µM
- TGI (NCI-H226 lung): 56.7 µM
- TGI (MDA-MB-435): > 100 µM
- TGI (NCI/ADR-RES ovarian): > 100 µM
- TGI (HT29 colon): > 100 µM
- TGI (PC-3 prostate): > 100 µM
- TGI (OVCAR-8 ovarian): > 100 µM
- TGI (UACC-62 melanoma): > 100 µM
- TGI (LOX IMVI melanoma): > 100 µM
- TGI (MDA-MB-231 breast): > 100 µM
- TGI (HCC-2998 colon): > 100 µM
- TGI (HOP-62 NSCLC): > 100 µM
- TGI (HCT-116 colon): > 100 µM
- TGI (A549 NSCLC): > 100 µM
- TGI (ACHN renal): > 100 µM
- TGI (A498 renal): > 100 µM
- TGI (M14 melanoma): > 100 µM
- TGI (MCF7 breast): > 100 µM
- TGI (NCI-H460 lung): > 100 µM
- TGI (OVCAR-4 ovarian): > 100 µM
- TGI (NCI-H522 lung): > 100 µM
- TGI (SK-MEL-28 melanoma): > 100 µM
- TGI (NCI-H23 lung): > 100 µM
- TGI (SK-MEL-5 melanoma): > 100 µM
- TGI (OVCAR-3 ovarian): > 100 µM
- TGI (UACC-257 melanoma): > 100 µM
- TGI (SW-620 colon): > 100 µM
- TGI (SK-MEL-2 melanoma): > 100 µM
- TGI (SNB-19 CNS): > 100 µM
- TGI (MDA-N): > 100 µM
- TGI (786-0 renal): > 100 µM
- TGI (UO-31 renal): > 100 µM
- TGI (MALME-3M melanoma): > 100 µM
- TGI (BT-549 breast): > 100 µM
- TGI (T-47D breast): > 100 µM
- TGI (RPMI-8226 leukemia): > 100 µM
- TGI (SF-268 CNS): > 100 µM
- TGI (SF-295 CNS): > 100 µM
- TGI (CAKI-1 renal): > 100 µM
- TGI (U251 CNS): > 100 µM
- TGI (CCRF-CEM leukemia): > 100 µM
- TGI (HS 578T breast): > 100 µM
- TGI (SNB-75 CNS): > 100 µM
- TGI (COLO 205 colon): > 100 µM
- TGI (EKVX NSCLC): > 100 µM
- TGI (K-562 leukemia): > 100 µM
- TGI (DU-145 prostate): > 100 µM
- TGI (SR leukemia): > 100 µM

Structure (SMILES): CC(C)(C)c1cc(O)ccc1O
- TGI (SK-OV-3 ovarian): > 100 µM
- TGI (IGROV1 ovarian): > 100 µM
- TGI (OVCAR-5 ovarian): > 100 µM
- TGI (SN12C renal): > 100 µM
- TGI (TK-10 renal): 22.2 µM
- TGI (HCT-15 colon): > 100 µM
- TGI (NCI-H226 lung): > 100 µM
- TGI (SF-539 CNS): > 100 µM
- TGI (MDA-MB-435): > 71.2 µM
- TGI (NCI/ADR-RES ovarian): > 100 µM
- TGI (KM12 colon): > 100 µM
- TGI (HT29 colon): > 100 µM
- TGI (PC-3 prostate): 5.3 µM
- TGI (OVCAR-8 ovarian): > 84.2 µM
- TGI (UACC-62 melanoma): > 100 µM
- TGI (LOX IMVI melanoma): > 74.6 µM
- TGI (HL-60(TB) leukemia): 26.7 µM
- TGI (MDA-MB-231 breast): 4.97 µM
- TGI (HOP-92 NSCLC): > 79.2 µM
- TGI (HCC-2998 colon): > 17.6 µM
- TGI (HOP-62 NSCLC): > 100 µM
- TGI (HCT-116 colon): > 72.9 µM
- TGI (A549 NSCLC): > 100 µM
- TGI (ACHN renal): > 100 µM
- TGI (A498 renal): > 100 µM
- TGI (M14 melanoma): > 100 µM
- TGI (MCF7 breast): > 100 µM
- TGI (NCI-H460 lung): > 21.6 µM
- TGI (OVCAR-4 ovarian): > 71.5 µM
- TGI (NCI-H522 lung): > 39.8 µM
- TGI (SK-MEL-28 melanoma): > 100 µM
- TGI (NCI-H23 lung): > 100 µM
- TGI (SK-MEL-5 melanoma): > 100 µM
- TGI (OVCAR-3 ovarian): > 70 µM
- TGI (UACC-257 melanoma): > 21.7 µM
- TGI (SW-620 colon): > 100 µM
- TGI (SK-MEL-2 melanoma): 3.18 µM
- TGI (SNB-19 CNS): > 100 µM
- TGI (MDA-N): > 100 µM
- TGI (786-0 renal): > 67 µM
- TGI (UO-31 renal): > 72.8 µM
- TGI (MALME-3M melanoma): > 27.6 µM
- TGI (BT-549 breast): > 100 µM
- TGI (T-47D breast): 41.9 µM
- TGI (RPMI-8226 leukemia): > 93.7 µM
- TGI (SF-268 CNS): > 51.1 µM
- TGI (SF-295 CNS): > 100 µM
- TGI (CAKI-1 renal): > 70.4 µM
- TGI (U251 CNS): 5.56 µM
- TGI (MOLT-4 leukemia): 27.1 µM
- TGI (CCRF-CEM leukemia): 33.2 µM
- TGI (HS 578T breast): > 100 µM
- TGI (SNB-75 CNS): 25.2 µM
- TGI (COLO 205 colon): > 100 µM
- TGI (EKVX NSCLC): > 100 µM
- TGI (K-562 leukemia): > 100 µM
- TGI (DU-145 prostate): 23.4 µM
- TGI (SR leukemia): 26.6 µM
